According to PubChem BioAssay AID1963836 (Molecular Pharmacology Branch, DTP, NCI, 2024):

System: 857933-349-R-J2-PDC complex spheroid viability
Experiment: Anticancer human tumor 857933-349-R-J2-PDC patient-derived colon adenocarcinoma cell line growth inhibition [POLQ]
Conditions: for IC50: curve of first compound; for viability, T/C: stronger effect = lower value
Procedure, shortened: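 Patient-derived tumour cells were co-cultured with HUVEC and mesenchymal stem cells as multicellular spheroids at 37 °C. They were treated with POLQ inhibitors (novobiocin, ART-558, RP6685) alone or combined with other agents. Top concentrations were at or near clinical Cmax (otherwise 10 microM; SN-38 at 1 microM), decreasing in half-log steps.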

[1] = second compound 0.0316 µM, first compound 0.00316 µM
[2] = second compound 0.0316 µM, first compound 0.01 µM
[3] = second compound 0.0316 µM, first compound 0.0316 µM
[4] = second compound 0.0316 µM, first compound 0.1 µM
[5] = second compound 0.1 µM, first compound 0.00316 µM
[6] = second compound 0.1 µM, first compound 0.01 µM
[7] = second compound 0.1 µM, first compound 0.0316 µM
[8] = second compound 0.1 µM, first compound 0.1 µM
[9] = second compound 0.316 µM, first compound 0.00316 µM
[10] = second compound 0.316 µM, first compound 0.01 µM
[11] = second compound 0.316 µM, first compound 0.0316 µM
[12] = second compound 0.316 µM, first compound 0.1 µM
[13] = second compound 1 µM, first compound 0.00316 µM
[14] = second compound 1 µM, first compound 0.01 µM
[15] = second compound 1 µM, first compound 0.0316 µM
[16] = second compound 1 µM, first compound 0.1 µM
[17] = second compound 3.16 µM, first compound 0.00316 µM
[18] = second compound 3.16 µM, first compound 0.01 µM
[19] = second compound 3.16 µM, first compound 0.0316 µM
[20] = second compound 3.16 µM, first compound 0.1 µM
[21] = second compound 10 µM, first compound 0.00316 µM
[22] = second compound 10 µM, first compound 0.01 µM
[23] = second compound 10 µM, first compound 0.0316 µM
[24] = second compound 10 µM, first compound 0.1 µM
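Further: spheroids exposed to compounds for seven days before readout.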

CC[C@@]1(O)C(=O)OCc2c1cc1n(c2=O)Cc2cc3c(CN(C)C)c(O)ccc3nc2-1 + Cc1cccc(N(C)C(=O)C2C(O)CCN2c2nc(C)cc(C(F)(F)F)c2C#N)c1
IC50 (second compound 0.0316 µM): 65.2 nM
IC50 (second compound 0.1 µM): 99.9 nM
IC50 (second compound 0.316 µM): 69.5 nM
IC50 (second compound 1 µM): 72.2 nM
IC50 (second compound 3.16 µM): 97.4 nM
IC50 (second compound 10 µM): 18.9 nM
viability, T/C (second compound 0.0316 µM, first compound 0.000316 µM): 98.7%
viability, T/C (second compound 0.0316 µM, first compound 0.001 µM): 102%
viability, T/C [1]: 92.8%
viability, T/C [2]: 80.6%
viability, T/C [3]: 61.8%
viability, T/C [4]: 43.1%
viability, T/C (second compound 0.1 µM, first compound 0.000316 µM): 106%
viability, T/C (second compound 0.1 µM, first compound 0.001 µM): 94.5%
viability, T/C [5]: 88.4%
viability, T/C [6]: 92.3%
viability, T/C [7]: 73.6%
viability, T/C [8]: 49.3%
viability, T/C (second compound 0.316 µM, first compound 0.000316 µM): 76.4%
viability, T/C (second compound 0.316 µM, first compound 0.001 µM): 108%
viability, T/C [9]: 91.4%
viability, T/C [10]: 78%
viability, T/C [11]: 76.2%
viability, T/C [12]: 38.7%
viability, T/C (second compound 1 µM, first compound 0.000316 µM): 98.8%
viability, T/C (second compound 1 µM, first compound 0.001 µM): 75.8%
viability, T/C [13]: 83.8%
viability, T/C [14]: 73.4%
viability, T/C [15]: 76.6%
viability, T/C [16]: 40.7%
viability, T/C (second compound 3.16 µM, first compound 0.000316 µM): 95.7%
viability, T/C (second compound 3.16 µM, first compound 0.001 µM): 79.3%
viability, T/C [17]: 77.9%
viability, T/C [18]: 74.1%
viability, T/C [19]: 69.4%
viability, T/C [20]: 46%
viability, T/C (second compound 10 µM, first compound 0.000316 µM): 77.9%
viability, T/C (second compound 10 µM, first compound 0.001 µM): 92.3%
viability, T/C [21]: 85.2%
viability, T/C [22]: 56.6%
viability, T/C [23]: 50.6%
viability, T/C [24]: 37.9%

CCc1c2c(nc3ccc(O)cc13)-c1cc3c(c(=O)n1C2)COC(=O)[C@]3(O)CC + Cc1cccc(N(C)C(=O)C2C(O)CCN2c2nc(C)cc(C(F)(F)F)c2C#N)c1
IC50 (second compound 0.0316 µM): 21.5 nM
IC50 (second compound 0.1 µM): 16.7 nM
IC50 (second compound 0.316 µM): 14 nM
IC50 (second compound 1 µM): 15.6 nM
IC50 (second compound 3.16 µM): 13.4 nM
IC50 (second compound 10 µM): 13.6 nM
viability, T/C [1]: 75%
viability, T/C [2]: 78.5%
viability, T/C [3]: 36.5%
viability, T/C [4]: 20%
viability, T/C (second compound 0.0316 µM, first compound 0.316 µM): 16.1%
viability, T/C (second compound 0.0316 µM, first compound 1 µM): 5.22%
viability, T/C [5]: 70.1%
viability, T/C [6]: 68.6%
viability, T/C [7]: 27.4%
viability, T/C [8]: 17.7%
viability, T/C (second compound 0.1 µM, first compound 0.316 µM): 13.2%
viability, T/C (second compound 0.1 µM, first compound 1 µM): 3.51%
viability, T/C [9]: 67%
viability, T/C [10]: 59.5%
viability, T/C [11]: 32%
viability, T/C [12]: 20.2%
viability, T/C (second compound 0.316 µM, first compound 0.316 µM): 15%
viability, T/C (second compound 0.316 µM, first compound 1 µM): 4.16%
viability, T/C [13]: 73.9%
viability, T/C [14]: 62.5%
viability, T/C [15]: 30.8%
viability, T/C [16]: 19.8%
viability, T/C (second compound 1 µM, first compound 0.316 µM): 14.1%
viability, T/C (second compound 1 µM, first compound 1 µM): 5.21%
viability, T/C [17]: 72.9%
viability, T/C [18]: 59.6%
viability, T/C [19]: 23.5%
viability, T/C [20]: 19.1%
viability, T/C (second compound 3.16 µM, first compound 0.316 µM): 12.3%
viability, T/C (second compound 3.16 µM, first compound 1 µM): 4.25%
viability, T/C [21]: 65.1%
viability, T/C [22]: 60.2%
viability, T/C [23]: 22.4%
viability, T/C [24]: 17.7%
viability, T/C (second compound 10 µM, first compound 0.316 µM): 17.1%
viability, T/C (second compound 10 µM, first compound 1 µM): 2.64%
